Measurements reported in patent US20110014137A1, “METHODS FOR PROTECTING THE SKIN FROM RADIATION INSULTS” (priority 2007, published 2011).
“Also recorded” adds a separate entry of the source. Read-outs that look alike come from different tables or passages of the source.

Key:
[1] = tested on: UVB-pretreated high-risk mice; assay: UVB radiation-induced skin carcinogenesis in high-risk mice, dietary administration; format: in vivo; conditions: for reduction of tumor incidence (percent animals with tumors) / reduction of tumor multiplicity (number of tumors per mouse): 13 weeks; for reduction of tumor multiplicity (number of tumors per mouse): diet; for number of tumors per mouse: control 4.3
Method: Seeds of broccoli (Brassica oleracea italica, cv. DeCicco) were used to grow sprouts as described in Example 1. Growth was arrested after 3 days by plunging sprouts into boiling water and allowed to boil for ˜30 min. This treatment inactivated the endogenous sprout myrosinase and extracted the glucosinolates. […] The powder was mixed with the mouse diet (powdered AIN 76A) to give the equivalent of 10 μmol (low dose) or 50 μmol (high dose) of glucoraphanin per 3 grams of diet.
Body weights and formation of tumors larger than 1 mm in diameter were determined weekly.
UVB radiation was provided by a bank of UV lamps (FS72T12-UVB-HO, National Biological Corporation, Twinsburg, Ohio) emitting UVB (280-320 nm, 65% of total energy) and UVA (320-375 nm, 35% of total energy). The radiant dose of UVB was quantified with a UVB Daavlin Flex Control Integrating Dosimeter and further calibrated with an IL-1400 radiometer (International Light, Newburyport, Mass.).
The animals were irradiated for 20 weeks on Tuesdays and Fridays with a radiant exposure of 30 mJ/cm^2/session. One week later, the mice were divided into three groups: 30 animals in each treatment group and 30 animals in the control group. The mice in the two treatment groups received a diet into which was incorporated a freeze-dried broccoli sprout extract powder. The diet of the low dose treatment group included a freeze-dried broccoli sprout extract powder equivalent to 10 μmol/day glucoraphanin, while the diet of the high dose treatment group included a freeze-dried broccoli sprout extract powder equivalent to 50 μmol/day glucoraphanin. […] The mice were fed this diet for 13 weeks.
Tumor volumes were determined by measuring the height, length, and width of each mass that was larger than 1 mm in diameter. The average of the three measurements was used as the diameter and the volume was calculated (v=4πr^3/3). All mice were euthanized on the same day and the size and multiplicity of tumors was determined. Dorsal skins were dissected using a rectangular template (2.5×5 cm) to include the entire treated areas of the mice. Skins were stapled to cardboard, photographed, and fixed in ice-cold 10% phosphate-buffered formalin at 4° C. for 24 h.
Tumor incidence was evaluated using the Kaplan-Meier survival analysis followed by both a stratified log-rank test and a Wilcoxon test, for equality of survivor functions. Tumor multiplicity was evaluated by ANOVA and comparisons were made on all treatments and on individual, paired treatments (t-test). Tumor volume was evaluated by ANOVA with treatment time as a nested variable. These calculations were performed using Stata 7.0 (College Station, Tex.). Other statistics were calculated using Excel.

[2] = Plasma levels of sulforaphane and its metabolites after chronic dietary treatment; format: in vivo, mice
Description: These levels are adequate to expect biological effects.

[3] = mice, dietary; cited from earlier work
glutathione [4] = conditions: 24 h exposure, serial dilutions
Method: (§1) Cells (20,000 per well) were plated on 96-well plates and exposed to a series of concentrations of sulforaphane. GSH and NQO1 levels were measured in cell lysates after 24 h and 48 h, respectively. Each data point represents the average of the measurements from 8 different wells.
(§2) HaCaT human keratinocytes (a gift from G. Tim Bowden, Arizona Cancer Center, Tucson) were cultured in Dulbecco's modified Eagle's medium (DMEM) supplemented with 5% FBS; and PE murine keratinocytes (a gift from Stuart H. Yuspa, National Cancer Institute, Bethesda, Md.) were cultured in Eagle's minimum essential medium (EMEM) with 8% FBS, treated with Chelex resin (Bio-Rad) to remove Ca^2+.
(§3) Cells (20,000 per well) were grown for 24 h in 96-well plates, then exposed to serial dilutions of sulforaphane for either 24 h (for glutathione determination) or 48 h (for NQO1 determination), and finally lysed in 0.08% digitonin. An aliquot (25 μl) was used for protein analysis. Activity of NQO1 was determined by the Prochaska test (29,30). To measure the intracellular glutathione levels, 25 μl of cell lysate received 50 μl of ice-cold metaphosphoric acid (50 g/liter) in 2 mM EDTA to precipitate cellular protein. After 10 min at 4° C., plates were centrifuged at 1,500 g for 15 min and 50 μl of the resulting supernatant fractions were transferred to a parallel plate. To each of these wells, 50 μl of 200 mM sodium phosphate buffer, pH 7.5, containing 10 mM EDTA, were added and total cellular glutathione was determined by rate measurements in a recycling assay (31,32).

quinone reductase (NQO1) = conditions: 48 h exposure; for intracellular level of NQO1: serial dilutions
Method: as §1, §2, §3

NQO1 [5] = conditions: topical, extract containing 1 μmol sulforaphane, skin 24 h later, vs vehicle
Description: (§4) The phase 2 response was next evaluated in vivo in […] hairless mice. Female SKH-1 hairless mice (4 weeks old) were obtained from Charles River Breeding Laboratories (Wilmington, Mass.) and were acclimatized in our animal facility for 2 weeks before the start of the experiment. The animals were kept on a 12-h light/12-h dark cycle, 35% humidity, and given free access to water and pelleted AIN 76A diet (Harlan TekLad, free of inducers). All animal experiments were in compliance with the National Institutes of Health Guidelines and were approved by the Johns Hopkins University Animal Care and Use Committee.
(§5) Seven-week-old SKH-1 hairless mice (5 per group) were treated topically on their backs with either 100 μl of a standardized myrosinase-hydrolyzed broccoli sprout extract containing 1 μmol of sulforaphane, or vehicle (100 μl of 80% acetone:20% water, v/v). The animals were euthanized 24 h later and their dorsal skins were dissected using a rectangular template (2.5×5 cm) and frozen in liquid N2. Skin samples were pulverized in liquid N2 and 100 mg of the resulting powder was homogenized in 1 ml of either 0.25 M sucrose buffered with 10 mM Tris-HCl, pH 7.4, for analysis of NQO1 enzymatic activity and protein content, or ice-cold metaphosphoric acid (50 g/liter) in 2 mM EDTA for analysis of glutathione. […]

glutathione [6] = conditions: topical, extract containing 1 μmol sulforaphane, skin 24 h later, vs vehicle
Description: as §4, §5

RAW 264.7 cells = assay: cells; conditions: Mus musculus, RAW264.7, 24 h, read-out: IC50, inhibition of NO formation
Method: (§6) Cells were treated with various concentrations of sulforaphane and either IFNγ (10 ng/ml) or lipopolysaccharide (LPS; 3 ng/ml) for 24 h. NO in the medium was measured as nitrite by the Griess reaction (A), and iNOS induction was detected by Northern (B) and Western (C) blotting.

iNOS = conditions: IFN-γ 10 ng/ml or LPS 3 ng/ml overnight
Method: as §6
RAW 264.7 macrophages (2×10^6 cells/well) were incubated with sulforaphane and either 10 ng/ml of IFN-γ or 3 ng/ml of LPS overnight. For Northern blots, total RNA was isolated with Trizol reagent (Invitrogen) and prepared for blotting as previously described (33). Probes for iNOS and GAPDH were radiolabeled with […] with random primers. For Western blots, total cell lysates were subjected to SDS/PAGE, transferred to a membrane, and probed with iNOS and β-actin antibodies (Santa Cruz Biotechnology).

myeloperoxidase (MPO) = assay: Skin myeloperoxidase (MPO) after 311-nm UV radiation; format: in vivo, SKH-1 hairless mice; conditions: three topical doses at 24-h intervals, 700 mJ/cm^2 311-nm UV 24 h after last dose
Method: (§7) The backs of SKH-1 hairless mice were treated topically with three doses at 24-h intervals of: (i) broccoli sprout extract containing 0.5 μmol of sulforaphane in 50 μl of 80% acetone/20% water (vol/vol) applied to the caudal area, and (ii) solvent applied to the rostral area. The animals received 700 mJ/cm^2 of 311-nm UV radiation 24 h after the last dose and were euthanized 24 h later, and their dorsal skin was harvested. (A) Fresh frozen 9-μm-thick sections of skin were fixed with paraformaldehyde and stained with H&E. (Scale bar 100 μm). (B) Mice were irradiated with a range of doses of UV radiation and euthanized 24 h later. (C) MPO-specific activity was measured in supernatant fractions of total homogenates prepared from liquid nitrogen-frozen and pulverized dorsal skin, and its protein levels were detected by Western blots with anti-MPO antibody (Hycult Biotechnology, Uden, The Netherlands). […] (D and E) MPO-specific (D) and NQO1-specific (E) activities were measured in supernatant fractions of total skin homogenates from mice treated with solvent (black bars), sulforaphane (gray bars), and broccoli sprout extract (white bars) and are expressed as ratios of each treatment to the non-irradiated control. Average values±SD are shown. Eight animals were used in the control group, and four in each of the treatment groups.

NQO1 [7] = assay: Skin NQO1 specific activity after 311-nm UV radiation; format: in vivo, SKH-1 hairless mice; conditions: three topical doses at 24-h intervals, 700 mJ/cm^2 311-nm UV 24 h after last dose
Method: as §7

HaCaT cells = HaCaT cells at concentrations giving >10-fold NQO1 induction
PE murine keratinocytes = conditions: 5 μM for 24 h, UVA 10 J/cm^2, PE cells
Method: Cells (50,000 per well) were plated on 24-well plates, treated with 5 μM sulforaphane for 24 h, washed with DPBS, and then exposed to UVA (10 J/cm^2). Reactive oxygen intermediates generated by the UV radiation were quantified by the fluorescent probe 2′,7′-dichlorodinitrofluorescein and fluorescence intensity was measured (expressed as a ratio of exposed to non-exposed cells).
PE cells (50,000 per well) were seeded into 24-well plates and grown for 48 h. The cells were then exposed to 1 μM or 5 μM sulforaphane for 24 h. On the day of the experiments, after removing the medium, the cells were incubated with 100 μM 2′,7′-dichlorodinitrofluorescein diacetate in 500 μl of fresh medium (Molecular Probes, Eugene, Oreg.) for 30 min. The medium containing the fluorescent probe was then removed, the cells were washed with DPBS, and exposed to UVA radiation (10 J/cm^2). Control cells were kept in the dark. Cells were detached with trypsin, suspended in 2.0 ml of DPBS, and the intensity of fluorescence was determined in cell suspensions at 520 nm with an excitation of 485 nm in 2-ml cuvettes in a Perkin-Elmer LS50 spectrofluorimeter.

[8] = in vivo; cited from earlier work

C[S+]([O-])CCCC/C(=N\OS(=O)(=O)O)S[C@@H]1O[C@H](CO)[C@@H](O)[C@H](O)[C@H]1O (stereo partly shown) [glucoraphanin]
inhibition in the total tumor volume per mouse ([1]; high dose 50 μmol/day): 70%
reduction of tumor incidence (percent animals with tumors) ([1]; high dose 50 μmol/day glucoraphanin as freeze-dried broccoli sprout extract powder in diet): 35%
reduction of tumor multiplicity (number of tumors per mouse) ([1]; high dose 50 μmol/day): 72%
number of tumors per mouse ([1]; high dose 50 μmol/day): 1.2
inhibition in the total tumor volume per mouse ([1]; low dose 10 μmol/day): 70%
reduction of tumor incidence (percent animals with tumors) ([1]; low dose 10 μmol/day glucoraphanin as freeze-dried broccoli sprout extract powder in diet): 25%
reduction of tumor multiplicity (number of tumors per mouse) ([1]; low dose 10 μmol/day): 47%
number of tumors per mouse ([1]; low dose 10 μmol/day): 2.3
plasma levels of sulforaphane and its metabolites ([2]; high dose 50 μmol/day glucoraphanin): 2500 nM
plasma levels of sulforaphane and its metabolites ([2]; low dose 10 μmol/day glucoraphanin): 2200 nM
fraction converted to sulforaphane upon ingestion [3]: about 10%

C[S+]([O-])CCCCN=C=S (stereo not shown) [sulforaphane, 4-methylsulfinylbutyl isothiocyanate]
intracellular level of glutathione (glutathione [4]; HaCaT human keratinocytes): increased in a dose-dependent manner
intracellular level of glutathione (glutathione [4]; PE murine keratinocytes): increased in a dose-dependent manner
magnitude of NQO1 induction (quinone reductase (NQO1); HaCaT cells): > 10 fold
intracellular level of NQO1 (quinone reductase (NQO1); HaCaT human keratinocytes): increased in a dose-dependent manner
intracellular level of NQO1 (quinone reductase (NQO1); PE murine keratinocytes): increased in a dose-dependent manner
induction of NQO1 (NQO1 [5]): ~50%
elevation of the total glutathione levels (glutathione [6]): ~15%
IC50 (RAW 264.7 cells): 300 nM
synthesis of iNOS mRNA (iNOS; Northern blot): inhibited
synthesis of iNOS protein (iNOS; Western blot): inhibited
reduction of tumor multiplicity (number of tumors per mouse) ([1]; high dose 50 μmol/day): 72%
reduction of tumor multiplicity (number of tumors per mouse) ([1]; low dose 10 μmol/day): 47%
UV radiation-induced MPO protein and enzyme activity (myeloperoxidase (MPO)): suppressed the increases of MPO protein and enzyme activity levels; also recorded: equivalent protection against the UV radiation-induced MPO elevation
NQO1 specific activity in skin homogenates (NQO1 [7]): increased the specific activities; also recorded: restoration of the UV radiation decreased NQO1 levels
cytotoxicity (HaCaT cells): without any apparent evidence of cytotoxicity
reduction in reactive oxygen intermediates generated by the UV radiation (PE murine keratinocytes): 50%
tissue half-life [8]: 1 to 2 h
